Laboratory results: patent publication US20040157818A1, “Cxcr4-antagonistic drugs composed of nitrogen-containing compound” (priority 2001, published 2004)

Columns and labels:
[1] = test system: ICR mice; experiment: Acute toxicity in ICR mice; format: in vivo; details: 50 mg/kg intraperitoneally twice a day for 4 days; dead mice after 5 days; male ICR mice, three animals per group
Procedure: The CXCR4-antagonist or the salt thereof of the present invention is intraperitoneally injected in to an ICR mouse ([…]) twice a day for 4 consecutive days, and no lethal case was found after 5 days. Therefore, the conclusion can be drawn that there is no acute toxicity.
7-week old ICR mice (male) (obtained from Charls River Japan Inc) were divided into three-animals for each groups. After domestication-breeding for 1 week, the compound of the coresponding Synthesis Example was dissolved in a physiological salt solution or distilled water and the solution was then intraperitoneally dosed twice a day for 4 days (50 mg/kg in dosage).

[2] = molecular target: T1, CXCR4 (Homo sapiens, UniProt P61073); experiment: CXCR4-binding inhibition activity (125I-SDF-1α binding to MT-4 cells); details: 0.1 μM test material, ligand 125I-SDF-1α, 2 hours under ice cold condition
T1 construct: endogenous in cells; host or cells: MT-4 cells
T1 sequence (P61073 whole entry): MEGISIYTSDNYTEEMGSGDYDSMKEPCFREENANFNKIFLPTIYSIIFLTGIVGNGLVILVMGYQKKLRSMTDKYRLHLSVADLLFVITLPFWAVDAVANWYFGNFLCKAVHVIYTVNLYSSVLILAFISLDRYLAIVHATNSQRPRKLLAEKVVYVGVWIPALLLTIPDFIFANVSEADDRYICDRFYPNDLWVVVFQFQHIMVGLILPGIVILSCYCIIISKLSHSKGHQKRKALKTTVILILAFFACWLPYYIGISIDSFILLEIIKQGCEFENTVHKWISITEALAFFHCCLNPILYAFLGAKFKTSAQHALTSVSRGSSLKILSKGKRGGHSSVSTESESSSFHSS
Procedure: CXCR4-Binding Inhibition Activity
MT-4 cells (5×10^6/0.2 ml/well) were cultured on a 24-well microtiter plate. After the cells were incubated for 24 hours at 37° C. in a carbon dioxide gas incubator, a culture mediumwas replaced with a buffer solution (RPMI-1640 containing 0.1% BSA). Together with a ligand ^125I-SDF-1α (specific activity: 2,2000 Ci/mmol; DAIICHI PURE CHEMICALS CO. ,LTD. (Tokyo)), various concentrations of test materials were subjected to a binding reaction for 2 hours under ice cold condition.

[3] = test system: type-II collagen-induced arthritis mouse; experiment: Drug efficacy test on type-II collagen-induced arthritis (CIA) mouse; format: in vivo
Procedure: Drug Efficacy Test of the Compound No. 86 on Type-II Collagen-Induced Arthritis Mouse
Using the type-II collagen-induced mouse arthritis (CIA) model, which was a model of articular rheumatism (RA), the compound No. 86 was tested for drug efficacy.
24 of 6-week-oldmale DBA/l mice (obtained from Charles River Japan, Inc.) were used as test animal and were divided in groups of 12 animals, that is, a test group of and a control group, such that the average weights of the respective groups were almost equal to each other.
An initial-sensitizing antigen solution used was a liquid of adjusted emulsion prepared by dissolving chicken type-II collagen (obtained from Collagen Gijyutu Kensyuukai) in 0.01N acetic acid (4mg/mL) andthenmixingwith an equal amount of Freund's complete adjuvant (manufactured by Difco BRL), and an additional-sensitizing antigen solution used was a liquid of emulsion prepared by dissolving chicken type-II collagen in 0.01N acetic acid (8 mg/mL), and then mixing with an equal amount of Freund's complete adjuvant.
An initial sensitization was performed by endodermic injection of 50 μl of the initial-sensitizing antigen solution (containing 100 μg of chicken type-II collagen) into the tail of the mouse. The additional sensitization was performed after 21 days from the initial sensitization by endodermic injection of 50 μl of the additional-sensitizing antigen solution (containing 200 μg of chicken type-II collagen) into the tail of the mouse.
The compound No. 86, which was provided as a test material, was provided as one at a concentration of 5 mg/mL prepared by dissolving ditartrate thereof in a physiological saline solution. The test material was administered such that the test material was interperitoneally administered once a day for consecutive 17 days from 2 days before the additional sensitization (an amount of administered liquid was 10 mL/kg). In addition, for the control group, the test material was administered by dissolving ditartrate in a physiological saline solution so as to make the concentration of tartaric acid of 1.7 mg/mL because a dosage solvent is ditartrate for the test material compound No. 86.
Amacroscopic observation on extremities after the additional sensitization was performed once a day. A scoring of the macroscopic observation was according to the following criteria and judged on each of extremities with respect to edema of foot. The total of the scores of extremities was provided as an index of the onset of symptoms and pharmacometrics with respect to arthritis. In addition, the total of the numbers of fingers of each extremity on which edema was observed was also used as an index of pharmacometrics.
In addition, the scores in FIG. 6 were defined as follows: […]

Compound	Number of dead mice [1]	inhibition rate (binding-inhibition % at 0.1 μM) [2] [%]	also measured
O=C(N[C@@H](CCCNC1CCCc2cccnc21)C(=O)NCc1cccc2ccccc12)c1ccc(CNCc2ncc[nH]2)cc1 (stereo partly drawn) [Compound No. 39, (2S)-2-(4-((N-imidazol-2-ylmethyl)aminomethyl)benzoylamino)-5-(5,6,7,8-tetrahydroquinolin-8-ylamino)valerate 1-naphthalenemethylamide]	0/3	–	–
O=C(N[C@@H](CCCNC1CCCc2cccnc21)C(=O)NCc1cccc2ccccc12)c1ccc(CNCc2ncc[nH]2)c2ccccc12 (stereo partly drawn) [Compound No. 41, (2S)-2-(4-((N-imidazol-2-ylmethyl)aminomethyl)naphthoylamino)-5-(5,6,7,8-tetrahydroquinolin-8-ylamino)valerate 1-naphthalenemethylamide]	0/3	97.9	–
C[C@H](NC(=O)[C@H](CCCNC(=N)N)NC(=O)c1ccc(CNCc2ncc[nH]2)c2ccccc12)c1cccc2ccccc12 [Compound No. 49, N^α-(4-(imidazol-2-ylmethyl)aminomethylnaphthoyl)-L-arginine (1′S)-(1′-(1-naphthyl)ethyl)amide]	0/3	97.8	–
C[C@H](NC(=O)[C@H](CCCNC1CCCc2cccnc21)NC(=O)c1ccc(CNCc2ncc[nH]2)c2ccccc12)c1cccc2ccccc12 (some centres unmarked) [Compound No. 57]	0/3	97.8	–
O=C(N[C@@H](CCCNC1CCCc2cccnc21)C(=O)NCc1cccc2ccccc12)c1ccc(CNCc2ccccn2)cc1 (stereo partly drawn) [Compound No. 65, (2S)-2-(4-(N-2-picolylaminomethyl)benzoylamino)-5-((5,6,7,8-tetrahydroquinolin-8-yl)amino)valerate 1-naphthalenemethylamide]	0/3	75.1	–
C[C@H](NC(=O)[C@H](CCCN=C(N)N)NC(=O)c1ccc(CNCc2ccccn2)cc1)c1cccc2ccccc12 [Compound No. 86, N^α-(4-(N-2-picolylaminomethyl)benzoyl)-L-arginine(1′S)-1′-(1-naphthyl)ethylamide]	0/3	91.4	lesion score of extremities (arthritis score) ([3]; 5 mg/mL, 10 mL/kg intraperitoneally once a day for 17 days from 2 days before additional sensitization, observed 12 days after additional sensitization, vs control group): tended to inhibit a chronological increase; change in animal body weights ([3]; 5 mg/mL, 10 mL/kg intraperitoneally once a day for 17 days, CIA mice): no influence was found; number of edematous fingers (chronological increase) ([3]; 5 mg/mL, 10 mL/kg intraperitoneally once a day for 17 days, observed 12 days after additional sensitization, vs control group): tended to inhibit a chronological increase; increase in number of edematous fingers ([3]; after 12 days from the additional sensitization, vs control group): significantly inhibited
O=C(N[C@@H](CCCNC1CCCc2cccnc21)C(=O)NCCc1c[nH]c2ccccc12)c1ccc(CNCc2ccccn2)c2ccccc12 (stereo partly drawn) [Compound No. 92, (2S)-2-(4-(N-2-picolylaminomethyl)naphthoyl)amino-5-(5,6,7,8-tetrahydroquinolin-8-yl)amino valerate 2-(3-indolyl)ethylamide]	0/3	–	–
Cn1ccnc1CNCc1ccc(C(=O)N[C@@H](CCCNC2CCCc3cccnc32)C(=O)NCc2cccc3ccccc23)cc1 (stereo partly drawn) [Compound No. 96, (2S)-2-((1-methylimidazol-2-ylmethyl)aminomethyl) benzoylamino-5-(5,6,7,8-tetrahydroquinolyl-8-yl)amino valerate 1-naphthalene methyleneamide]	0/3	96.8	–
C[C@H](NC(=O)[C@H](CCCNC(=N)N)NC(=O)c1ccc(CNCc2nccn2C)c2ccccc12)c1cccc2ccccc12 [Compound No. 97, N^α-(4-((N-(1-methylimidazol-2-ylmethyl)amino)methyl)naphthalene-1-carbonyl)-L-arginine(1′S)-1′-(1-naphthyl)ethylamide]	0/3	100.0	–
C[C@H](NC(=O)[C@H](CCCNC(=N)N)NC(=O)c1ccc(CNCc2ccccn2)c2ccccc12)c1cccc2ccccc12 [Compound No. 99, N^α-(4-(N-2-picolylaminomethyl)naphthoyl)-L-arginine(1′S)-1′-(1-naphthyl)ethylamide]	0/3	76.4	–
O=C(N[C@@H](CCCN[C@H]1CCCc2cccnc21)C(=O)NCc1cccc2ccccc12)c1ccc(CNCc2ccccn2)c2ccccc12 [Compound No. 105, (2S)-2-(4-(N-2-picolylaminomethyl)naphthalene-1-carbonyl)amino-5-((8S)-5,6,7,8-tetrahydroquinolin-8-yl)amino valerate 1-naphthylmethylamide]	–	91.9	–
C[C@H](NC(=O)[C@H](CCCNC1CCCc2cccnc21)NC(=O)c1ccc(CNCc2ncc[nH]2)cc1)c1cccc2ccccc12 (some centres unmarked) [Compound No. 106]	0/3	100.0	–
C[C@H](NC(=O)[C@H](CCCNC1CCCc2cccnc21)NC(=O)c1ccc(CNCc2nccn2C)cc1)c1cccc2ccccc12 (some centres unmarked) [Compound No. 107]	0/3	96.5	–
C[C@H](NC(=O)[C@H](CCCNC1=NCCN1)NC(=O)c1ccc(CNCc2ncc[nH]2)cc1)c1cccc2ccccc12 [Compound No. 110, (S)-2-(4-((N-imidazol-2-ylmethyl)aminomethyl)benzoyl)amino-5-(4,5-dihydroimidazol-2-yl)amino valerate(1′S)-1′-(1-naphthyl)ethylamide]	–	75.7	–
C[C@H](NC(=O)[C@H](CCCNC1=NCCCN1)NC(=O)c1ccc(CNCc2ncc[nH]2)cc1)c1cccc2ccccc12 [Compound No. 112, (S)-2-(4-((N-imidazol-2-ylmethyl)aminomethyl)benzoyl)amino-5-(3,4,5,6-tetrahydropyrimidin-2-yl)amino valerate(1′S)-1′-(1-naphthyl)ethylamide]	–	84.2	–
